Molecular target: T1, wt-CFTR (Homo sapiens, UniProt P13569)
T1 construct: expressed in transfected cells
Assay: Live-cell photoaffinity labeling, streptavidin pull-down and CFTR Western blot
Format: binding
Conditions: wt-CFTR CFBE41o- cells, 25-fold excess (25 μM) competitor 30 min before probe (1 μM)
Description: Wt-CFTR or F508del-CFTR CFBE41o- cells were plated at 2–2.5 × 10^6 cells/plate in 6 cm diameter dishes. The day after, sodium butyrate (5–2.5 mM) was added for 24 h; next, the medium was exchanged with fresh one supplemented with DMSO (0.25%) (276855, Sigma-Aldrich) or probe (1 μM). For competition experiments, a 25-fold excess of ARN23765 (25 μM) was added 30 min before probe’s addition. For the analysis of “corrected” F508del-CFTR, F508del-CFTR CFBE41o- cells were kept at 27 °C for 24 h before adding the probes. Probes were incubated with cells for 2 h, then the medium was removed, and plates were washed twice with phosphate buffer saline (PBS). Cells were placed on ice and irradiated for 5 min at a wavelength of 365 nm using a 100-W UV-lamp (95–0127–02 model B100-AP, Analytik Jena). Cells were harvested with trypsin (T4299, Sigma-Aldrich), washed with PBS (D8537, Sigma-Aldrich), and pellets were stored at −80 °C until used, centrifuged at 300 × g and washed twice with PBS (D8537, Sigma-Aldrich). Pellets from in-cell photoaffinity labeling with alkyne-probes (PAP_1 and PAP_2) were lysed in PBS plus protease inhibitor cocktail (78429, Thermo Scientific) by sonication. The suspension was centrifuged at 800 × g for 20 min at 4 °C to discard nuclei and cell debris. The total extracted proteins were quantified with the bicinchoninic acid (BCA) protein assay (23225, Thermo Scientific) and subjected to CuAAC before proceeding with pull-down. Pellets from in-cell photoaffinity labeling with desthio-biotinylated (DS-biot) probes (PAP_1 DS-biot, PAP_2 DS-biot, PAP_N1 DS-biot, PAP_N2 DS-biot) were lysed with a modified RIPA buffer [50 mM tris-HCl pH 8, 150 mM NaCl, 0.5% Triton-X100, 0.2% SDS, 1 mM ethylenediaminetetraacetic acid (EDTA)] supplemented with protease inhibitor cocktail and centrifuged at 10.000× g for 10 min. The protein content in the supernatant was quantified by BCA protein assay. Protein lysate (200 μg) was diluted to 800 μL and the Triton-X100 percentage was reduced to 0.2% before proceeding to pull-down.
Copper-catalyzed azide–alkyne cycloaddition (CuAAC) was performed according to a previously described protocol.[62] Briefly, to the protein preparation (250 μL at 1 mg/mL protein concentration) the following reagents were added at the indicated final concentrations: 100 μM 5/6-TAMRA-azide-desthiobiotin (CLK-1110–5, Jena Bioscience), 1.0 mM tris-(2-carbossietil)phosphine (TCEP, C4706, Sigma-Aldrich), 100 μM tris-[(1-benzyl-1H-1,2,3-triazol-4-yl)methyl]amine (TBTA, 678937, Sigma-Aldrich), 1.0 mM CuSO4.5H2O (Sigma), and 0.8% sodium dodecyl sulfate (SDS). TBTA was first dissolved in DMSO at 83.5 mM and then diluted with four volumes of tert-butanol. The reaction was mixed by vortexing and incubated for 1 h at 25 °C. After the reaction time, proteins were precipitated with 5 volumes of cold acetone overnight at −20 °C. Samples were centrifuged for 20 min at 20.000× g, and the pellets were washed with methanol, air-dried, and finally resuspended with 600 μL of 1% SDS. SDS concentration was then diluted to 0.2% with PBS before proceeding to pull-down.
High capacity streptavidin agarose (20359, Thermo Scientific) (25 μL) was added to PAP-labeled cell extracts for 1 h at room temperature under gentle rotation. The streptavidin beads were collected by centrifugation and washed four times with lysis buffer. Resin-bound proteins were eluted with 45 μL of 5 mM biotin (B4501, Sigma-Aldrich) for 30 min at room temperature and analyzed with Western blot for CFTR expression. Input samples (4 and 8 μg for wt-CFTR and F508del-CFTR CFBE41o-, respectively) were collected immediately before incubation with streptavidin resin. Input and pulled-down samples were analyzed with WB as described in the supplementary methods.

T1 sequence (P13569 whole entry): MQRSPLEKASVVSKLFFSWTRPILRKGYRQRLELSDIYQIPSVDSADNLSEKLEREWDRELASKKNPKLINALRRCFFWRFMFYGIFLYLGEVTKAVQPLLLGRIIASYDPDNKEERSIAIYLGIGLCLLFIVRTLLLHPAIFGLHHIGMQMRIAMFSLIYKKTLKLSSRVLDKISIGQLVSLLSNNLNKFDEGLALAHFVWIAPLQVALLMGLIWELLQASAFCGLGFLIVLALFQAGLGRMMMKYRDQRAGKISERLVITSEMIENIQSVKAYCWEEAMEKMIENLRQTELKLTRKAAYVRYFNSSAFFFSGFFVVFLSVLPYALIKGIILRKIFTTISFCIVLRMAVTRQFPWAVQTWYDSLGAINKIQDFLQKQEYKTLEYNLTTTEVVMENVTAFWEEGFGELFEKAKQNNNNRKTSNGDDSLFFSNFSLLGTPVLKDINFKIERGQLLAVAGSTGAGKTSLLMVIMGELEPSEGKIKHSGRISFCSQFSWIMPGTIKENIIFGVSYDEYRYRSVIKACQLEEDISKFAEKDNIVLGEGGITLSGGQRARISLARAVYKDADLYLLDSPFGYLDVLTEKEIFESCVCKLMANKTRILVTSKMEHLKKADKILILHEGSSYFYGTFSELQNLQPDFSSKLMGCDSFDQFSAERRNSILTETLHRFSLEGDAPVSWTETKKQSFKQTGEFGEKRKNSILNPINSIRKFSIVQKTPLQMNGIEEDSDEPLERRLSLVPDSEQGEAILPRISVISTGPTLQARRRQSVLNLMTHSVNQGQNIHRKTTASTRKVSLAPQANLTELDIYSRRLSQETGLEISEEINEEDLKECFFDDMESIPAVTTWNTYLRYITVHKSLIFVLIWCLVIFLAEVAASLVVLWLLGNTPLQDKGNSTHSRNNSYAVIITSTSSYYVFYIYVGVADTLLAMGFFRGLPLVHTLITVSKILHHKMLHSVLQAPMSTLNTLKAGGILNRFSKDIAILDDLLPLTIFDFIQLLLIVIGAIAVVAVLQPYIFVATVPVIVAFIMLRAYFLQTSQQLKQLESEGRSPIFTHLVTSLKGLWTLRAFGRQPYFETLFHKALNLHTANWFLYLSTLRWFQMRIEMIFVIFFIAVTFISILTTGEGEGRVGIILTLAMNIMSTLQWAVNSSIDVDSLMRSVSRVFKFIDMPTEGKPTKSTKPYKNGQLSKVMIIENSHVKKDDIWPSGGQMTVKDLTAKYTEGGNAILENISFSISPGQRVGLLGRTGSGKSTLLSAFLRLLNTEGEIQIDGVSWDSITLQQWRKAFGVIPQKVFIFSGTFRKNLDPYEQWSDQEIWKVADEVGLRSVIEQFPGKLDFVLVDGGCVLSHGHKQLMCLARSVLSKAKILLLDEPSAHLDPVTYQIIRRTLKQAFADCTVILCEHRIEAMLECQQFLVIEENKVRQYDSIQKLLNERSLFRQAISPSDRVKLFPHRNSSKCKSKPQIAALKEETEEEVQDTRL

Question: Which “Competition: CFTR recovered in pull-down by PAP_1 DS-biot or PAP_2 DS-biot after preincubation with competitor” value does the source give for CN(C(=O)c1cccc(-n2nc(C(F)(F)F)c3c2[C@@H](Oc2ccc(C(=O)O)cc2)CCC3)c1)c1ccc2c(c1)OC(F)(F)O2 [ARN23765] here?
Answer: The value was “markedly reduced amount of the recovered protein”.
